Test results: US7799799B2, “Indolizine derivatives, method for preparing same, and therapeutic compositions comprising same” (Sanofi-Aventis, priority 2005, dated 2010)
Counter-ions that a name gives are not always drawn.

Assay: Solubility test at pH=4 from phosphate buffer pH 6 0.1M, by HPLC
Type: physicochemical
Conditions: for solubility at 5 min: aqueous buffer, thermodynamic from solid, phosphate buffer pH 6 0.1M, HPLC, first figure of the S/pH cell, the pH of the sample is the second; for pH (of the solubility sample): second figure of the S/pH cell, pH noted for the solubility sample
Experimental: The results for solubility, S, and pH are shown in the table below and are expressed in mg/ml.
A phosphate buffer, pH6, 0.1M, was prepared by adding 6.15 ml of 0.1M Na2HPO4 to 43.85 ml of 0.1M NaH2PO4. The solution was made up to 100 ml with filtered water using a Millipore system (trade mark).
Reference (Test Product in a Concentration in which the Latter is Soluble and which Acts as an Internal Reference)
About 0.2 mg (in a boat) was weighed out exactly and diluted in 1 ml of H2O/CH3CN: (50:50), i.e. 0.2 mg/ml, then the sample was subjected to ultrasound for 5 minutes.
About 4 mg (in a boat) was weighed out exactly and diluted in 400 μl (i.e. 10 mg/ml) of pH6 phosphate buffer (0.1M), then the sample was subjected to ultrasound for 5 minutes.
The pH was noted and if the pH was below 4, 1 μl of NaOH 1N was added (from 1 μl in 1 μl) until the pH was more than 4, then the pH was noted again. The solution (0.45 μm) was filtered then if necessary diluted with the phosphate buffer pH6. (If the product re-precipitated after diluting, the diluted sample was ignored, the mother solution was used and the solubility was determined at a wavelength other than λmax, to avoid saturating the signal.
The solubility of the compound was then determined by HPLC under the following conditions:
Instrument: Agilent 1100 chromatograph
Column temperature: 30° C. Flow rate: 0.8 ml/min Detection: λ=230 nm Injection volume: 5 μl

SMILES | solubility at 5 min [µg/mL] | pH (of the solubility sample)
CCc1cc2ccccn2c1C(=O)c1ccc(CCCN(CC)CC)cc1.O=C(O)C(=O)O [compound 2, (2-ethylindolizin-3-yl){4-[3-(diethylamino)propyl]phenyl}methanone oxalate] | 7470 | 4.07
CCCN(CCC)CCCc1ccc(C(=O)c2c(CC)cc3ccccn23)cc1 [compound 8, {4-[3-(dipropylamino)propyl]phenyl}(2-ethylindolizin-3-yl)methanone hydrochloride] | 8600 | 5.82
CCCCc1cc2ccccn2c1C(=O)c1ccc(CCCCN(CC)CCC)cc1 [compound 30, (2-butylindolizin-3-yl)(4-{4-[ethyl(propyl)amino]butyl}phenyl)methanone hydrochloride] | > 10000 | 5.85
CCCN(CC)CCCCc1ccc(C(=O)c2c(C(C)C)cc3ccccn23)cc1 [compound 27, (4-{4-[ethyl(propyl)amino]butyl}phenyl)(2-isopropylindolizin-3-yl)methanone oxalate] | 2170 | 6.5
CCCCN(CCCC)CCCCc1ccc(C(=O)c2c(CCC)cc3ccccn23)cc1 [compound 22, {4-[4-(dibutylamino)butyl]phenyl}(2-propylindolizin-3-yl)methanone oxalate] | 4080 | 4.58
CCCCc1cc2ccccn2c1C(=O)c1ccc(CCCCN(CCC)CCC)cc1 [compound 10, (2-butylindolizin-3-yl){4-[4-(dipropylamino)butyl]phenyl}methanone hydrochloride] | > 10000 | 5.81
CCCN(CC)CCCc1ccc(C(=O)c2c(CC)cc3ccccn23)cc1 [compound 24, (2-ethylindolizin-3-yl)(4-{3-[ethyl(propyl)amino]propyl}phenyl)methanone oxalate] | 5920 | 4.51
CCCCc1cc2ccccn2c1C(=O)c1ccc(CCCCN(CCCC)CCCC)cc1 [compound 20, (2-butylindolizin-3-yl){4-[4-(dibutylamino)butyl]phenyl}methanone oxalate] | 2950 | 4.02
CCCN(CC)CCCCc1ccc(C(=O)c2c(CC)cc3ccccn23)cc1 [compound 31, (2-ethylindolizin-3-yl)(4-{4-[ethyl(propyl)amino]butyl}phenyl)methanone oxalate] | > 10000 | 4.05
CCCCc1cc2ccccn2c1C(=O)c1ccc(CCCN(C)C)cc1.Cl [compound 38, (2-butylindolizin-3-yl){4-[3-(dimethylamino)propyl]phenyl}methanone hydrochloride] | 1420 | 
CCCCc1cc2ccccn2c1C(=O)c1ccc(CCCN(CCCC)CCCC)cc1 [compound 17, (2-butylindolizin-3-yl){4-[3-(dibutylamino)propyl]phenyl}methanone hydrochloride] | > 10000 | 4.88
CCCN(CCC)CCCCc1ccc(C(=O)c2c(C(C)C)cc3ccccn23)cc1 [compound 14, {4-[4-(dipropylamino)butyl]phenyl}(2-isopropylindolizin-3-yl)methanone oxalate] | 2330 | 4.10
CCCN(CC)CCCc1ccc(C(=O)c2c(C(C)C)cc3ccccn23)cc1 [compound 25, (4-{3-[ethyl(propyl)amino]propyl}phenyl)(2-isopropylindolizin-3-yl)methanone hydrochloride] | 1710 | 6.4
CCCc1cc2ccccn2c1C(=O)c1ccc(CCCCN(CCC)CCC)cc1 [compound 16, {4-[4-(dipropylamino)butyl]phenyl}(2-propylindolizin-3-yl)methanone hydrochloride] | > 10000 | 5.81
CCCCc1cc2ccc(C)cn2c1C(=O)c1ccc(CCCN(CCC)CCC)cc1 [compound 43, (2-butyl-6-methylindolizin-3-yl){4-[3-(dipropylamino)propyl]phenyl}methanone hydrochloride] | 4460 | 5.65
CCCCc1cc2ccccn2c1C(=O)c1ccc(CCCN2CCCCC2)cc1 [compound 42, (2-butylindolizin-3-yl)[4-(3-piperidin-1-ylpropyl)phenyl]methanone oxalate] | 1660 | 5.18

SMILES | solubility at 5 min [µg/mL] | pH (of the solubility sample)
CCCCc1cc2ccccn2c1C(=O)c1ccc(CCCN(CC)CC)cc1.Cl [compound 1, (2-butylindolizin-3-yl){4-[3-(diethylamino)propyl]phenyl}methanone hydrochloride] | 8810 | 5.4
CCCCN(CCCC)CCCc1ccc(C(=O)c2c(CC)cc3ccccn23)cc1 [compound 18, {4-[3-(dibutylamino)propyl]phenyl}(2-ethylindolizin-3-yl)methanone hydrochloride] | 6510 | 5.42
CCCN(CC)CCCCc1ccc(C(=O)c2c(C)cc3ccccn23)cc1 [compound 28, (4-{4-[ethyl(propyl)amino]butyl}phenyl)(2-methylindolizin-3-yl)methanone hydrochloride] | 1540 | 7.01
CCCCc1cc2ccccn2c1C(=O)c1ccc(CCCN(CC)CCC)cc1 [compound 23, (2-butylindolizin-3-yl)(4-{3-[ethyl(propyl)amino]propyl}phenyl)methanone hydrochloride] | > 10000 | 6.06
CCCCc1cc2ccccn2c1C(=O)c1ccc(CCCN(CCOC)CCOC)cc1 [compound 41, (4-{3-[bis(2-methoxyethyl)amino]propyl}phenyl)(2-butylindolizin-3-yl)methanone oxalate] | 7190 | 3.95
CCCN(CCC)CCCc1ccc(C(=O)c2c(C)cc3ccccn23)cc1 [compound 13, {4-[3-(dipropylamino)propyl]phenyl}(2-methylindolizin-3-yl)methanone hydrochloride] | 1610 | 7.2
CCCc1cc2ccccn2c1C(=O)c1ccc(CCCN(CC)CC)cc1.Cl [compound 3, {4-[3-(diethylamino)propyl]phenyl}(2-propylindolizin-3-yl)methanone hydrochloride] | > 10000 | 5.82
CCCCc1cc2ccccn2c1C(=O)c1ccc(CCCN2C[C@@H](C)N[C@@H](C)C2)cc1 [compound 39, (2-butylindolizin-3-yl)(4-{3-[(3R,5S)-3,5-dimethylpiperazin-1-yl]propyl}phenyl)methanone hydrochloride] | > 10000 | 4.22
CCCCc1cc2ccccn2c1C(=O)c1ccc(CCCN2C[C@@H](C)N(C)[C@@H](C)C2)cc1 [compound 40, (2-butylindolizin-3-yl)(4-{3-[(3R,5S)-3,4,5-trimethylpiperazin-1-yl]propyl}phenyl)methanone hydrochloride] | 9930 | 4.3
CCCCc1cc2ccccn2c1C(=O)c1ccc(CCCN(CCC)CCCC)cc1 [compound 33, (2-butylindolizin-3-yl)(4-{3-[butyl(propyl)amino]propyl}phenyl)methanone oxalate] | 3880 | 5.36
CCCCN(CCCC)CCCCc1ccc(C(=O)c2c(CC)cc3ccccn23)cc1 [compound 21, {4-[4-(dibutylamino)butyl]phenyl}(2-ethylindolizin-3-yl)methanone oxalate] | 6900 | 4.08
CCc1cc2ccccn2c1C(=O)c1ccc(CCCCN(CC)CC)cc1.O=C(O)C(=O)O [compound 5, {4-[4-(diethylamino)butyl]phenyl}(2-ethylindolizin-3-yl)methanone oxalate] | > 10000 | 3.96
CCCNCCCCc1ccc(C(=O)c2c(CCC)cc3ccccn23)cc1.Cl [compound 36, {4-[4-(propylamino)butyl]phenyl}(2-propylindolizin-3-yl)methanone hydrochloride] | 2240 | 6.3
CCCc1cc2ccccn2c1C(=O)c1ccc(CCCN(CCC)CCC)cc1 [compound 9, {4-[3-(dipropylamino)propyl]phenyl}(2-propylindolizin-3-yl)methanone hydrochloride] | 5290 | 5.82
CCCCc1cc2ccccn2c1C(=O)c1ccc(CCCNCCC)cc1.Cl [compound 37, (2-butylindolizin-3-yl){4-[3-(propylamino)propyl]phenyl}methanone hydrochloride] | 1780 | 7.14
CCCc1cc2ccccn2c1C(=O)c1ccc(CCCCN(CC)CCC)cc1 [compound 32, (4-{4-[ethyl(propyl)amino]butyl}phenyl)(2-propylindolizin-3-yl)methanone hydrochloride] | 5640 | 5.60
